Tests used:
[1] = Serum lipid content before and after taking acer truncatum bunge seed oil in patients with demyelinating disease; type: in vivo, human
Source text: For sample detection, sample pretreatment and ultra-high performance liquid chromatography-mass spectrometry in Example 1 were used. At the same time, standard SM(d17:1/24:1) and Cer(d18:1/24:1(15Z)) were used as reference for detection.

[2] = Changes of serum lipids containing nervonic acid chains after taking acer truncatum bunge seed oil for different days; type: in vivo, SD rats; details: for blood levels after taking acer truncatum bunge seed oil compared with before taking: rat blood; for serum lipid content, Day 1 (NA1) / serum lipid content, Day 3 (NA3) / serum lipid content, Day 7 (NA7) / difference in content between the third and the seventh day of administration / content compared with the normal group: rat serum; for serum lipid content, Day 1 (NA1) / serum lipid content, Day 3 (NA3) / serum lipid content, Day 7 (NA7): acer truncatum bunge seed oil group, nervonic acid 0.03 g/kg/d by gavage; for difference in content between the third and the seventh day of administration: day 3 vs day 7; for content compared with the normal group: oil group vs normal control group; for NA7/NA1: ratio of serum content day 7 to day 1
Protocol: The collected serum samples were thawed on ice, 200 µL plasma was extracted with 600 µL pre-cooled isopropanol, vortexed for 1 min, and incubated at room temperature for 10 min. Then the extraction mixture was stored overnight at -20° C., centrifuged at 4000r for 20 min, and the supernatant was transferred to a new centrifuge tube, diluted with isopropanol/acetonitrile/water (2:1:1, v:v:v) to 1:10. The samples were stored at -80° C. before LC-MS analysis. In addition, 10 µL of each extraction mixture was combined to prepare mixed plasma samples.
The mixed plasma samples were analyzed using ACQUITY UPLC(Waters, USA) connected to the Xevo-G2XS High Resolution Time of Flight (QTOF) Mass spectrometer (Waters) with ESI. CQUITY UPLC BEH C18 column (2.1× 100 mm, 1.7 µm, Waters), and mobile phase consisted of 10 mM ammonium formate-0.1% formic acid-acetonitrile (A, 60: 40, v/v) and 10 mM ammonium formate-0.1% formic acid-isopropanol-acetonitrile (B, 90:10, v/v) were used. Pilot trials with 10-, 15-, and 20-minute washout periods were conducted prior to the large-scale study to assess the potential impact of mobile phase composition and flow rate on lipid retention time. In PIM, rich lipid precursor ions and fragments separated in the same order, with similar peak shapes and ionic strengths. […] The flow rate of mobile phase was 0.4 mL/min. The column was initially eluted with 40% B, 43% B in 2 min according to linear gradient, and 50% B within 0.1 min, 54%B in 3.9 minutes according to linear gradient, and 70% B within 0.1 min. In the last part of the gradient, the amount of B increased to 99% in 1.9 minutes. Finally, solution B was returned to 40% within 0.1 min and the column was balanced for 1.9 min before the next sample injection. The lipids were detected by Xevo-G2XS QTOF mass spectrometer with a sample size of 5 µL/time, collection range of m/z50~1200 […], and collection time of 0.2 s/time. The ion source temperature was 120° C., the desolutizing temperature was 600° C., the gas flow rate was 1000 L/h, and nitrogen was used as the flowing gas. The capillary voltage was 2.0 kV(+)/the […] was 1.5 kV(-), and the cone voltage was 30 V. A standard quality determination was carried out using leucine enkephalin and corrected with sodium formate solution. The samples were sorted randomly. A quality control (QC) sample was injected into every 10 samples and analyzed to investigate repeatability of the data.
50 male SD rats aged 5-6 weeks were randomly divided into 2 groups, which were acer truncatum bunge seed oil group (NA group) and normal control group (CK group). After 1 week of adaptive feeding, rats in each group entered into the experiment. Acer truncatum bunge seed oil group was administrated by gavage according to the content of nervonic acid 0.03 g/kg/d, once a day, and blood was collected after 1, 3 and 7 days. The normal control group was fed routinely, and the blood was collected at the same time as the acer truncatum bunge seed oil group for the detection of lipid SM(d17:1/24:1) and Cer(d18:1/24:1(15Z)) with the nervonic acid chain.

[3] = human, once a day for one month; cited from earlier work
[4] = after 1 day of taking the oil, individual patients

Compound	serum lipid content relative to before taking acer truncatum bunge seed oil ([1]; after 7-day of taking the oil)	serum lipid content relative to before taking acer truncatum bunge seed oil [1, 4]	blood levels after taking acer truncatum bunge seed oil compared with before taking [2]	serum lipid content, Day 1 (NA1) [2]	serum lipid content, Day 3 (NA3) [2]	serum lipid content, Day 7 (NA7) [2]	difference in content between the third and the seventh day of administration [2]	content compared with the normal group [2]	NA7/NA1 [2]	test indexes (mind, picture, recognition, association, sence of touch, understanding) compared with the control group [3]
CCCCCCCC/C=C\CCCCCCCCCCCCCC(=O)N[C@@H](CO)[C@H](O)/C=C/CCCCCCCCCCCCC [Cer(d18:1/24:1(15Z))]	1.45 times	1.23 times	> 1.3 times	135883.1	209352.5	172840.3	no significant difference	increased	1.3	
CCCCCCCC/C=C\CCCCCCCCCCCCCC(=O)O [nervonic acid, cis-15-Tetracosenic acid]										significantly improved
SM(d17:1/24:1)	1.22 times	1.15 times	more than 1.2 times	245574.2	340912.8	291861.8	no significant difference	increased	1.2	

From patent US20230324419A1, “METHOD FOR DIAGNOSING ACTING OF NERVONIC ACID AND USE THEREOF” (BAO FENG BIOTECH (BEIJING) CO., LTD, priority 2020, published 2023)
